ChEMBL document CHEMBL1126708, “Inhibitors of acyl-CoA:cholesterol acyltransferase (ACAT). 2. Modification of fatty acid anilide ACAT inhibitors: bioisosteric replacement of the amide bond” (J Med Chem, 1993)

Columns and labels:
Rattus norvegicus = assay: In vivo change in plasma total cholesterol in cholic acid (0.3%)-cholesterol (1.5%)-peanut oil(5.5%) fed rats dosed at 0.05% of diet.
O-acyltransferase = O-acyltransferase (Oryctolagus cuniculus, UniProt G1SFD9); assay: Acyl coenzyme A:cholesterol acyltransferase (ACAT), inhibition by incubation with [1-14C]oleolyl-CoA and intestinal microsomes isolated from intestinal mucosa of cholesterol-fed rabbits
Sequence of O-acyltransferase (G1SFD9 1-524): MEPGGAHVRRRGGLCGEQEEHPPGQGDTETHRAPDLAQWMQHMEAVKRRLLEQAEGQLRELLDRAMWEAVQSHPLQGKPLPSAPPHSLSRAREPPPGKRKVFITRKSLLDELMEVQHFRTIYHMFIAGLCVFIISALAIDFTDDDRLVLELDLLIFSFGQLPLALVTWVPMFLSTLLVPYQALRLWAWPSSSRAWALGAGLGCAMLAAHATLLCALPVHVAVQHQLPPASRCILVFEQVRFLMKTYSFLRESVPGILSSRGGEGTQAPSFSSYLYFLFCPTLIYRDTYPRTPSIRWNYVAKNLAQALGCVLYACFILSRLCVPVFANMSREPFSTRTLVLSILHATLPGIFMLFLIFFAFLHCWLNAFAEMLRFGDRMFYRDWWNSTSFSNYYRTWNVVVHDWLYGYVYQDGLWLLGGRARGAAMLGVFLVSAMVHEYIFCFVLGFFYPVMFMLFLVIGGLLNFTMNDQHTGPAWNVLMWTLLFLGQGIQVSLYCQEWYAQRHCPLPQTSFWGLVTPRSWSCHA

[1] = Tested in vivo for plasma total cholesterol(TC) in cholic acid (0.3%)-cholesterol (1.5%)-peanut oil (5.5%) fed rats; assay type: functional
[2] = target: T1, Acyl-CoA:cholesterol acyltransferase (Oryctolagus cuniculus) (UniProt Q95214); assay: Tested in vitro against intestinal Acyl coenzyme A:cholesterol acyltransferase by incubation with [1-14C]oleolyl-CoA in intestinal microsomes isolated from intestinal mucosa of cholesterol-fed rabbits; conditions: Microsome, concentration not given here
T1 sequence (whole entry): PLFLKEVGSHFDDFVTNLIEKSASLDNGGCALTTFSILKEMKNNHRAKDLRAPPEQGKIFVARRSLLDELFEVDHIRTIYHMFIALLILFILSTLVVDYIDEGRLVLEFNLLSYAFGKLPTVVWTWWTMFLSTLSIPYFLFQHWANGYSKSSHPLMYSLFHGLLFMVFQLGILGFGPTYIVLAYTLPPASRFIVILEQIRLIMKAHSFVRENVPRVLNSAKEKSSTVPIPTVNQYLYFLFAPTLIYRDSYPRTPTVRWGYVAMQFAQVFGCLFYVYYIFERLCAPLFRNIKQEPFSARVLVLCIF

SMILES	IC50 (O-acyltransferase) [nM]	other results
CCCCCCCCCCC(C)(C)NC(=O)Nc1c(C(C)C)cccc1C(C)C	45	Change (Rattus norvegicus): -60%
CCCCCCCCCCCCCCNC(=O)Nc1c(CC)cccc1CC	21	Change (Rattus norvegicus): -38%
CCCCCCCCCCCCCCCCCCNC(=O)Nc1c(C)cccc1Cl	1100	–
CCCCCCCCCCCCCCCCCCOC(=O)Nc1c(C)cccc1C	> 10000	–
CCCCCCCCCCC(C)(C)NC(=O)Nc1c(CC)cccc1CC	52	Change (Rattus norvegicus): -60%
CCCCCCCCCCC1(NC(=O)Nc2c(C(C)C)cccc2C(C)C)CCCC1	46	Change (Rattus norvegicus): -53%
CCCCCCCC/C=C\CCCCCCCCNC(=O)Nc1c(OC)cc(OC)cc1OC	320	Change [1]: -25%
CCCCCCCC/C=C\CCCCCCCCNC(=O)Nc1c(C)cccc1Cl	180	Change (Rattus norvegicus): -42%
CCCCCCCC/C=C\CCCCCCCCNC(=O)Nc1ccc(OC)cc1OC	5400	–
CCCCCCCC/C=C\CCCCCCCCNC(=O)Nc1c(Cl)cccc1Cl	400	Change (Rattus norvegicus): -47%
CCCCCCCC/C=C\CCCCCCCC(=O)NCc1c(OC)cc(OC)cc1OC	6800	–
CCCCCCCCCCCCCCCCCCOC(=O)Nc1c(OC)cc(OC)cc1OC	7100	–
CCCCNC(=O)Nc1c(C(C)C)cccc1C(C)C	630	–
CCCCCCCC/C=C/CCCCCCCC(=O)Nc1c(OC)cc(OC)cc1OC	44	Change (Rattus norvegicus): -38%
CCCCCCCC/C=C\CCCCCCCC(=O)Oc1c(C)cccc1C	> 10000	–
CCCCCCCC/C=C\CCCCCCCCNC(=O)Nc1c(CC)cccc1CC	43	Change (Rattus norvegicus): -26%
CCCCCCCC/C=C\CCCCCCCCNC(=O)Nc1c(Cl)cc(Cl)cc1Cl	1200	–
CCCCCCCCCCNC(=O)Nc1c(CC)cccc1CC	100	–
CCCCCCCCCCNC(=O)Nc1c(C)cccc1C(C)C	210	–
CCCCCCCCCCCCCCCCCC(=O)Oc1c(C)cccc1C	> 10000	–
CNC(=O)Nc1c(C(C)C)cccc1C(C)C	> 5000	–
CCCCCCCC/C=C\CCCCCCCCNC(=O)Nc1c(CC)cccc1C(C)C	37	Change (Rattus norvegicus): -41%
CCCCCCCC/C=C\CCCCCCCCNC(=O)Nc1ccc(F)cc1F	4700	–
CCCCCCCC/C=C\CCCCCCCCNC(=S)Nc1c(C)cccc1C	5400	–
CCCCCCCC/C=C\CCCCCCC/C(S)=N/c1c(OC)cc(OC)cc1OC	900	Change (Rattus norvegicus): -22%

SMILES	IC50 (O-acyltransferase) [nM]	other results
CCCCCCCC/C=C\CCCCCCCCNC(=O)c1c(OC)cc(OC)cc1OC	9400	–
CCCCCCCCCCCCCCNC(=O)Nc1ccc(F)cc1F	340	–
CCCCCCCC/C=C\CCCCCCCCNC(=O)Nc1ccccc1OC	3300	–
CCCCCCCC/C=C\CCCCCCCC(=O)c1c(OC)cc(OC)cc1OC	> 50000	–
CCCCCCCCCCC(CC)(CC)CNC(=O)Nc1c(C(C)C)cccc1C(C)C	50	–
CCCCCCCC/C=C\CCCCCCCCOC(=O)Nc1c(OC)cc(OC)cc1OC	860	–
CCCCCCCC/C=C\CCCCCCCC/N=C(\S)Nc1c(C)cccc1C	–	Change (Rattus norvegicus): -17%
CCCCCCCC/C=C\CCCCCCCCNC(=O)Nc1c(C)cccc1C	160	Change (Rattus norvegicus): -55%
CCCCCCCCCCCCCCCCCCNC(=O)Nc1c(C(C)C)cccc1C(C)C	48	Change (Rattus norvegicus): -7%
CCCCCCCC/C=C\CCCCCCCCNC(=O)Nc1c(C)cc(C)cc1C	2900	–
CCCCCCCCCCCCCCCCCCOc1c(C)cccc1C	> 10000	–
CCCCCCCCCCC(C)(C)CNC(=O)Nc1c(C(C)C)cccc1C(C)C	47	–
CCCCCCCCCCCCCCCCCC(=O)Nc1c(OC)cc(OC)cc1OC	–	Change (Rattus norvegicus): -11%
CCCCCCCCCCC1(NC(=O)Nc2c(CC)cccc2CC)CCCC1	110	–
CCCCCCCC/C=C\CCCCCCCCOC(=O)c1c(OC)cc(OC)cc1OC	> 5000	–
CCCCCCCC/C=C\CCCCCCCCNC(=O)Nc1ccccc1	> 5000	–
CCCCCCCCCC(C)(C)CNC(=O)Nc1c(C(C)C)cccc1C(C)C	46	–
CCCCCCCCCCCCCCCCCCNC(=O)Oc1c(C)cccc1C	3100	–
CCCCCCCCCCCCCCCCS(=O)(=O)Nc1c(OC)cc(OC)cc1OC	690	–
CCCCCCCCCCCCCCCCCCNC(=O)Nc1c(OC)cc(OC)cc1OC	900	–
CCCCCCCCCCC(C)(C)NC(=O)Nc1ccccc1CC	500	–
CCCCCCCCCCCCCCCCCCNC(=O)c1c(C)cccc1C	> 10000	–
CCCCCCCCCCCCCCCCCCNC(=O)Nc1c(C)cccc1C	610	–
CCCCCCCCCCCCCCNC(=O)Nc1c(C)cccc1Cl	70	Change (Rattus norvegicus): 0%
CCCCCCCC/C=C\CCCCCCCCNC(=O)Nc1ccc(Oc2ccccc2)cc1	> 5000	–

SMILES	IC50 (O-acyltransferase) [nM]	other results
CCCCCCCC/C=C\CCCCCCCCNC(=O)c1c(C)cccc1C	9800	–
CCCCCCCCCCNC(=O)Nc1c(CC)cccc1C(C)C	87	Change (Rattus norvegicus): -61%
CCCCCCCCCCCCCCNC(=O)Nc1cccc(C(F)(F)F)c1	> 2500	–
CCCCCCCCCCNC(=O)Nc1c(C)cccc1C(C)(C)C	200	–
CCCCCCCCCCCCCCCCCCSC(=O)Nc1c(OC)cc(OC)cc1OC	5700	–
CCCCCCCCCCCCCCNC(=O)Nc1c(CC)cccc1C(C)C	18	Change (Rattus norvegicus): -41%
CCCCCCCC/C=C\CCCCCCCC(O)c1c(OC)cc(OC)cc1OC (configuration not stated)	–	inhibition [2]: 6%
CCCCCCCCCCCCCCCCCCNC(=O)NCc1c(OC)cc(OC)cc1OC	> 5000	–
CCCCCCCCCCCCCCCCCCNC(=O)Sc1c(C)cccc1C	2460	–
CCCCCCCCCCCCCCCCCCSC(=O)Nc1c(C)cccc1C	> 10000	–
CCCCCCCCCCNC(=O)Nc1c(C(C)C)cccc1C(C)C	56	Change (Rattus norvegicus): -64%
CCCCCCCCCCCCCCNC(=O)Nc1c(F)cc(F)cc1F	250	–
CCCCCCCC/C=C\CCCCCCCCNC(=O)Nc1ccc(C)cc1C	> 5000	–
CCCCCCCCCCCCCCCCCC[S+]([O-])c1c(C)cccc1C (configuration not stated)	> 10000	–
CCCCCCCC/C=C\CCCCCCCCNC(=O)Nc1ccccc1CC	980	Change (Rattus norvegicus): -28%
CCCCCCCCCCCCCCCCC(C)(C)CNC(=O)Nc1c(C(C)C)cccc1C(C)C	73	–
CCCCCCCC/C=C\CCCCCCCC(=O)Nc1c(C)cccc1C	–	Change (Rattus norvegicus): -38%
CCCCCCCC/C=C\CCCCCCCCNCc1c(OC)cc(OC)cc1OC	> 100000	–
CCCCCCNC(=O)Nc1c(C(C)C)cccc1C(C)C	99	–
CCCCCCCC/C=C\CCCCCCCCNC(=O)Nc1c(C(C)C)cccc1C(C)C	28	Change (Rattus norvegicus): -45%
CCCCCCCCCCCCCCNC(=O)Nc1c(Br)cc(CC)cc1Br	520	–
CCCCCCCCCCCCCCCCCCSc1c(C)cccc1C	> 10000	–
CCCCCCCC/C=C\CCCCCCCCNC(=O)Nc1cc(C)ccc1C	4500	–
